The values below come from ChEMBL document CHEMBL6092191, “Advancing Cancer Immunotherapy through Engineering New PD-L1 Degraders: A Comprehensive Study from Small Molecules to PD-L1-Specific Peptide-Drug Conjugates” (J Med Chem, 2024).

The nature of series [1]: Toxicity in C57BL/6 mouse model xenografted with […] cells assessed as change in ALT level at 29.5 mg/kg, ip administered daily for 8 days. The class given is organism-based, Blood. Particulars: in vivo, 192 h, time 8 day. A general note: Xenograft models place foreign cells or tissue in a host animal.
Another series deals with 3T3-L1. Nature of the series: Antiproliferative activity against mouse 3T3-L1 cells at 10 uM incubated for 4 days. The class given is toxicity, cell-based. Particulars: 3t3-l1, 96 h, time 4 day.
The subject of series [2] is Lewis lung carcinoma cell line. Nature of the series: Antitumor activity against Lewis lung carcinoma cells xenografted in C57BL/6 mouse model assessed as decrease in Ki-67 level at 29.5 mg/kg, ip administered daily for 8 days by IHC analysis. The class given is functional, organism-based. To be noted: time 8.0 day.
Series [3] is described as follows: Toxicity in C57BL/6 mouse model xenografted with […] cells assessed as change in BUN level at 29.5 mg/kg, ip administered daily for 8 days. The class given is organism-based, Blood. Particulars: in vivo, 192 h, time 8 day.
For another series, the system named is HEK-293T. Nature of the series: Antiproliferative activity against HEK293T cells at 10 uM incubated for 4 days. Particulars: human, 96 h, time 4 day. The class given is toxicity, cell-based.
Series [4] relates to Lewis lung carcinoma cell line. Nature of the series: Antitumor T-cell immune response in Lewis lung carcinoma cells xenografted in C57BL/6 mouse model assessed as decrease in CD3+ CD4+ population in CD45+ T cells in tumor at 29.5 mg/kg, ip administered daily for 8 days by flow cytometry. The class given is functional, organism-based. Particulars: time 8.0 day.
Series [5] can be described thus: Toxicity in C57BL/6 mouse model xenografted with […] cells assessed as damage in lung at 29.5 mg/kg, ip administered daily for 8 days by H and E staining based analysis. The class given is organism-based. Particulars: in vivo, 192 h, time 8 day.
Another series relates to Mus musculus. Nature of the series: In vivo induction of PD-L1 degradation in […] lung carcinoma cells xenografted in C57BL/6 mouse model at 29.5 mg/kg, ip administered daily for 8 days by IHC analysis. Particulars: time 8.0 day. The class given is functional, organism-based.
The nature of series [6]: Toxicity in C57BL/6 mouse model xenografted with […] cells assessed as damage in heart at 29.5 mg/kg, ip administered daily for 8 days by H and E staining based analysis. The class given is organism-based. To be noted: in vivo, 192 h, time 8 day.
Series [7] in a line: Toxicity in C57BL/6 mouse model xenografted with […] cells assessed as change in AST level at 29.5 mg/kg, ip administered daily for 8 days. The class given is organism-based, Blood. To be noted: in vivo, 192 h, time 8 day.
Series [8] is described as follows: Toxicity in C57BL/6 mouse model xenografted with […] cells assessed as damage in kidney at 29.5 mg/kg, ip administered daily for 8 days by H and E staining based analysis. The class given is organism-based. To be noted: in vivo, 192 h, time 8 day.
Series [9] can be described thus: Toxicity in C57BL/6 mouse model xenografted with […] cells assessed as damage in liver at 29.5 mg/kg, ip administered daily for 8 days by H and E staining based analysis. The class given is organism-based. To be noted: in vivo, 192 h, time 8 day.
Series [10] relates to Lewis lung carcinoma cell line. Nature of the series: Antitumor T-cell immune response in Lewis lung carcinoma cells xenografted in C57BL/6 mouse model assessed as increase in CD3+ CD8+ infiltration in CD45+ T cells in tumor at 29.5 mg/kg, ip administered daily for 8 days by flow cytometry. To be noted: time 8.0 day. The class given is functional, organism-based. Background: A flow cytometer gives signals particle by particle.

The nature of series [11]: Toxicity in C57BL/6 mouse model xenografted with […] cells assessed as damage in spleen at 29.5 mg/kg, ip administered daily for 8 days by H and E staining based analysis. The class given is organism-based. Particulars: in vivo, 192 h, time 8 day.
Series [12] in a line: Toxicity in C57BL/6 mouse model xenografted with […] cells assessed as change in creatinine level at 29.5 mg/kg, ip administered daily for 8 days. Particulars: in vivo, 192 h, time 8 day. The class given is organism-based.
The target in series [13] is COP9 signalosome complex subunit 5 (Homo sapiens) (UniProt Q92905). Nature of the series: Induction of PD-L1 degradation in human NCI-H460 cells at 10 to 20 uM incubated for 2 days by Western blot analysis. The class given is cell-based. Particulars: dose 10-20 µM, time 2.0 day. (In general: In western blotting, separated proteins are transferred to a membrane and probed.)
COP9 signalosome complex subunit 5 (Homo sapiens), sequence (Q92905 2-334 limits assumed, one chain of several): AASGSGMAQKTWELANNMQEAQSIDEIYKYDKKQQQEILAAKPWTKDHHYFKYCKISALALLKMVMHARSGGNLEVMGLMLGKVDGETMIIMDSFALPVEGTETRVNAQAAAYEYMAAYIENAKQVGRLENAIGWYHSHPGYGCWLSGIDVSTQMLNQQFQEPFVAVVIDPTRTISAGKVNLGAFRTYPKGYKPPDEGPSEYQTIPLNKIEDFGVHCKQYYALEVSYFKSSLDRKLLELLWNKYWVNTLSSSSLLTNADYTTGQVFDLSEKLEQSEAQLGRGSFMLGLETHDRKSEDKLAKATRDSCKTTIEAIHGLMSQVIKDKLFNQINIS

Series [14] is described as follows: Toxicity in C57BL/6 mouse model xenografted with […] cells assessed as obvious body weight change at 29.5 mg/kg, ip administered daily for 8 days. The class given is organism-based. Particulars: in vivo, 192 h, time 8 day.
In series [15] the test system is Lewis lung carcinoma cell line. Nature of the series: Antitumor activity against Lewis lung carcinoma cells xenografted in C57BL/6 mouse model at 29.5 mg/kg, ip administered daily for 8 days relative to control. The class given is functional. To be noted: 192 h, time 8 day, read-out: TGI.
The nature of series [16]: Antiproliferative activity against human HTori-3 cells at 10 uM incubated for 4 days. The class given is toxicity, cell-based. To be noted: htori-3, 96 h, time 4 day.
Series [17] relates to Lewis lung carcinoma cell line. Nature of the series: Antitumor T-cell immune response in Lewis lung carcinoma cells xenografted in C57BL/6 mouse model assessed as increase in ratio of CD8+ to CD4+ T cells in tumor at 29.5 mg/kg, ip administered daily for 8 days by flow cytometry. The class given is functional, organism-based. Particulars: time 8.0 day.

The structures appear in SMILES notation. Active and inactive are the calls of the source. No cut-off for these calls is given here.

As for `COc1cc2c(cc1OC)-c1cc3ccc(OC)c(OCCNC(=O)OCCSSC[C@H](N)C(=O)NCCCCCC(=O)N[C@@H](CC(N)=O)C(=O)N[C@@H](Cc4ccc(O)cc4)C(=O)N[C@@H](CO)C(=O)N[C@@H](CCCCN)C(=O)N4CCC[C@H]4C(=O)N[C@H](C(=O)N[C@@H](CC(=O)O)C(=O)N[C@@H](CCCNC(=N)N)C(=O)N[C@@H](CCC(N)=O)C(=O)N[C@@H](Cc4ccc(O)cc4)C(=O)N[C@@H](Cc4cnc[nH]4)C(=O)N[C@@H](Cc4ccccc4)C(=O)O)[C@@H](C)O)c3c[n+]1CC2.[Cl-]`, the Activity result (in series [1]; in the series on 3T3-L1; in series [3]; in the series with HEK-293T; in series [5]; in [6]) was “Non-toxic” each time. Besides, the Activity result in [7] was “Non-toxic”; in series [8], “Non-toxic”; in [9], “Non-toxic”; in series [11], “Non-toxic”; in series [12], “Non-toxic”; in [13], “Active; Comparable To Pmt-O9-1A”. Also, the Activity result in series [14] and in series [16] was “Non-toxic” throughout. Further, the result (in series [2]; in [4]; with Mus musculus; in series [10]; in series [17]) was Active. Moreover, in series [15], the inhibition in vivo at 29.5 mg/kg is 89%.
